# Experimental data published in patent US8034941B2, “Imidazopyridazinone and imidazopyridone derivatives, the preparation thereof and their use as pharmaceutical compositions” (Boehringer Ingelheim International GmbH, priority 2003, dated 2011).
# Target: T1, DPP-IV (Homo sapiens, UniProt P27487)
# T1 construct: an extract of human colon carcinoma cell line Caco-2 is used as the DPP IV source; endogenous in cells; host or cells: Caco-2 (human colon carcinoma), differentiated to induce DPP-IV expression; Nonidet-P40 solubilised extract
# T1 sequence (P27487 whole entry): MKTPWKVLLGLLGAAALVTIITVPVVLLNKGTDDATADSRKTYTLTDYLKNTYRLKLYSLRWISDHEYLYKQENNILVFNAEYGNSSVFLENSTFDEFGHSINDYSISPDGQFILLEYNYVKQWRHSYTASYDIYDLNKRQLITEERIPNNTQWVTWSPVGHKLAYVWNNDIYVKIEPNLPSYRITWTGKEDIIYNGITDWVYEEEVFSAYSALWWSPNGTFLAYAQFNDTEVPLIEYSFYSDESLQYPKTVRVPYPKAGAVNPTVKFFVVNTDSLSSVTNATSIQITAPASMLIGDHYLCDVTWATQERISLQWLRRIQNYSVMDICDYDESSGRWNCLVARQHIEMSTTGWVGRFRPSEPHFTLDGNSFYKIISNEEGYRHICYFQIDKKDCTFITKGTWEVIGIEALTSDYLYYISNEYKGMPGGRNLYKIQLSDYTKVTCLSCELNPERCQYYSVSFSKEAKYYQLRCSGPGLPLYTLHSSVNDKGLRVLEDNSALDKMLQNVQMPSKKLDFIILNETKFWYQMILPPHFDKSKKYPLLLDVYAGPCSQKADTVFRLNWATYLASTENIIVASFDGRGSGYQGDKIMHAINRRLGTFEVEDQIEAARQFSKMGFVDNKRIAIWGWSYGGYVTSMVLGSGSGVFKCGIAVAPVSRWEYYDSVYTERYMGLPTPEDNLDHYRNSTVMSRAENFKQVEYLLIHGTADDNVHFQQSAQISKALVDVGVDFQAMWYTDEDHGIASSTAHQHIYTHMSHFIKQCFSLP
# Assay: DPP-IV assay with Caco-2 cell extract as DPP IV source, AFC substrate, fluorescence
# Assay type: biochemical
# Details: extract of human colon carcinoma cell line Caco-2; substrate 100 μM; 60 minutes at ambient temperature; read-out: DPP IV inhibition IC50
# Description: The cell extract was obtained from cells solubilised in a buffer (10 mM Tris HCl, 0.15 M NaCl, 0.04 t.i.u. aprotinin, 0.5% Nonidet-P40, pH 8.0) by centrifuging at 35,000 g for 30 minutes at 4° C. (to remove cell debris).
# The DPP-IV assay was carried out as follows:
# 50 μl substrate solution (AFC; AFC is amido-4-trifluoromethylcoumarin), final concentration 100 μM, were placed in black microtitre plates. 20 μl of assay buffer (final concentrations 50 mM Tris HCl pH 7.8, 50 mM NaCl, 1% DMSO) was pipetted in. The reaction was started by adding 30 μl of solubilised Caco-2 protein (final concentration 0.14 μg of protein per well). The test substances to be investigated were typically added prediluted in 20 μl, and the volume of assay buffer was then reduced accordingly. The reaction was carried out at ambient temperature, incubating for 60 minutes. […] Blank readings (corresponding to 0% activity) were obtained in mixtures without any Caco-2 protein (volume replaced by assay buffer), control values (corresponding to 100% activity) were obtained in mixtures with no substance added.
row,Compound,IC50
1,"CC#CCn1c(N2CCCC(N)C2)nc2cnn(Cc3nc4ccccc4c4ccccc34)c(=O)c21 (centres unmarked) [1(1), 2-(3-amino-piperidin-1-yl)-3-(2-butyn-1-yl)-5-[(phenanthridin-6-yl)methyl]-3,5-dihydro-imidazo[4,5-d]pyridazin-4-one]",17 nM
2,"CC#CCn1c(N2CCCC(N)C2)nc2cnn(Cc3cc4ccccc4c4ccccc34)c(=O)c21 (centres unmarked) [1(2), 2-(3-amino-piperidin-1-yl)-3-(2-butyn-1-yl)-5-[(phenanthren-9-yl)methyl]-3,5-dihydro-imidazo[4,5-d]pyridazin-4-one]",58 nM
3,"CC#CCn1c(N2CCC[C@@H](N)C2)nc2c(C)nn(Cc3nc4ccccc4c4ccccc34)c(=O)c21 [1(3), 2-((R)-3-amino-piperidin-1-yl)-3-(2-butyn-1-yl)-5-[(phenanthridin-6-yl)methyl]-7-methyl-3,5-dihydro-imidazo[4,5-d]pyridazin-4-one x trifluoroacetic acid]",8 nM
4,"CC#CCn1c(N2CCC[C@@H](N)C2)nc2c(C)nn(CC3=Nc4ccccc4Oc4ccccc43)c(=O)c21 [1(4), 2-((R)-3-amino-piperidin-1-yl)-3-(2-butyn-1-yl)-5-[(dibenzo[b,f][1,4]oxazepin-11-yl)methyl]-7-methyl-3,5-dihydro-imidazo[4,5-d]pyridazin-4-one]",9 nM
5,"CC#CCn1c(N2CCC[C@@H](N)C2)nc2cnn(Cc3nc4ccc5ccccc5c4o3)c(=O)c21 [1(7), 2-((R)-3-amino-piperidin-1-yl)-3-(2-butyn-1-yl)-5-[(naphtho[2,1-d]oxazol-2-yl)methyl]-3,5-dihydro-imidazo[4,5-d]pyridazin-4-one]",3 nM
6,"CC#CCn1c(N2CCC[C@@H](N)C2)nc2cnn(Cc3nc4c(ccc5ccccc54)o3)c(=O)c21 [1(8), 2-((R)-3-amino-piperidin-1-yl)-3-(2-butyn-1-yl)-5-[(naphtho[1,2-d]oxazol-2-yl)methyl]-3,5-dihydro-imidazo[4,5-d]pyridazin-4-one]",7 nM
7,"CC#CCn1c(N2CCC[C@@H](N)C2)nc2cnn(Cc3nc4ccccc4c(=O)[nH]3)c(=O)c21 [1(9), 2-((R)-3-amino-piperidin-1-yl)-3-(2-butyn-1-yl)-5-[(4-oxo-3,4-dihydro-quinazolin-2-yl)methyl]-3,5-dihydro-imidazo[4,5-d]pyridazin-4-one]",3 nM

# Tested on: rats
# Assay: Tolerability after oral administration to rats (behaviour)
# Assay type: in vivo
# Details: 10 mg/kg
row,Compound,changes in the animals' behaviour
1,"CC#CCn1c(N2CCCC(N)C2)nc2cnn(CC3=Nc4ccccc4Oc4ccccc43)c(=O)c21 (centres unmarked) [Example 1, 2-(3-amino-piperidin-1-yl)-3-(2-butyn-1-yl)-5-[(dibenzo[b,f][1,4]oxazepin-11-yl)methyl]-3,5-dihydro-imidazo[4,5-d]pyridazin-4-one]",no changes in the animals' behaviour could be detected
